Data taken from US7763615B2, “Ecteinascidin analogs for use as antitumour agents” (priority 2001, dated 2010).
Like-named read-outs stand apart in the source and are kept apart here.

Assays:
[1] = tested on: NRK-52E, normal rat kidney cells; conditions: 24 h
[2] = tested on: H9c2 (2-1), normal rat cardiac muscle cells; conditions: 24 h
[3] = tested on: L8, normal rat skeletal muscle cells; conditions: 24 h
Description: In order to assess the cytotoxicity of the drugs to normal cells, we used 96 well plates plated at a density of 5000 cells per well (except for the FDC-P1 which were plated at 12,000 cells per well) with normal cell lines (ATCC, Table 1) maintained as per the directions of the ATCC: AML-12, normal mouse liver cells; NRK-52E, normal rat kidney cells; L8, normal rat skeletal muscle cells; FDC-P1, normal mouse myelogeous stem cells; and H9c2 (2-1), normal rat cardiac muscle cells. The cells in each plate were permitted to settle overnight before adding the test drug.
To each well (100 μl medium) 10 μl of drug in media was added at varying concentrations (1×10-10-0.01 mg/ml final concentration) and further incubated overnight at 37° C. with 5% CO2. After 24 h the following assays were performed. All experiments were repeated at least 3 times and were assayed in duplicate.
MTS assay (CellTiter 96 aqueous) was performed according to the manufacturer's (Promega) directions (for all cell types). Cell viability (mitochondrial activity) is determined via enzymatic conversion of the formazan substrate.

[4] = tested on: MCF; assay: cells; type: cell-based; conditions: Homo sapiens
Summary of the method: (§1)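 SRB colorimetric read-out (490 nm) after TCA fixation gave GI, TGI and LC values from triplicate wells. Before that, cells (5×10^3/well, RPMI 1640 with 10% FBS, 37 °C, 5% CO2) grew drug-free 18 h and were then continuously exposed 48 h to 10–10^−8 μg/ml compound.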

[5] = tested on: MEL-28; assay: cells; type: cell-based
Summary of the method: as §1

[6] = tested on: A549; assay: cells; type: cell-based; conditions: for GI50: read-out: GI50
Summary of the method: as §1

[7] = tested on: DU145; assay: cells; type: cell-based
Summary of the method: as §1

[8] = tested on: SW-620; assay: cells; type: cell-based; conditions: Homo sapiens
Summary of the method: as §1

[9] = tested on: HT29; assay: cells; type: cell-based
Summary of the method: as §1

[10] = tested on: A498; assay: cells; type: cell-based; conditions: Homo sapiens
Summary of the method: as §1

[11] = tested on: MB231; assay: cells; type: cell-based; conditions: Homo sapiens
Summary of the method: as §1

[12] = tested on: FDC-P1, normal mouse myelogeous stem cells; conditions: 24 h
[13] = tested on: AML-12, normal mouse liver cells; conditions: 24 h
[14] = tested on: SK-OV3; assay: Inhibition of cells growth by colorimetric assay (SRB), SK-OV3; type: cell-based; conditions: SK-OV3, 48 hours exposure, SRB
Description: The finality of these assays is to interrupt the growth of a “in vitro” tumor cell culture by means of a continued exhibition of the cells to the sample to be testing.
A colorimetric type of assay, using sulphorhodamine B (SRB) reaction has been adapted for a quantitative measurement of cell growth and viability [following the technique described by Philip Skehan, et al. (1990), New colorimetric cytotoxicity assay for anticancer drug screening, J. Natl. Cancer Inst., 82:1107-1112]
This form of the assay employs 96 well cell culture microplates of 9 mm diameter (Faircloth, 1988; Mosmann, 1983). Most of the cell lines are obtained from American Type Culture Collection (ATCC) derived from different human cancer types.
Cells are maintained in RPMI 1640 10% FBS, supplemented with 0.1 g/l penicillin and 0.1 g/l streptomycin sulphate and then incubated at 37° C., 5% CO2 and 98% humidity. For the experiments, cells were harvested from subconfluent cultures using trypsin and resuspended in fresh medium before plating.
Cells are seeded in 96 well microtiter plates, at 5×10^3 cells per well in aliquots of 195 μl medium, and they are allowed to attach to the plate surface by growing in drug free medium for 18 hours. Afterward, samples are added in aliquots of 5 μl in a ranging from 10 to 10^−8 μg/ml, dissolved in DMSO/EtOH/PBS (0.5:0.5:99). After 48 hours exposure, the antitumor effect are measured by the SRB methodology: cells are fixed by adding 50 μl of cold 50% (wt/vol) trichloroacetic acid (TCA) and incubating for 60 minutes at 4° C. Plates are washed with deionized water and dried. One hundred μl of SRB solution (0.4% wt/vol in 1% acetic acid) is added to each microtiter well and incubated for 10 minutes at room temperature. Unbound SRB is removed by washing with 1% acetic acid. Plates are air dried and bound stain is solubilized with Tris buffer. Optical densities are read on a automated spectrophotometric plate reader at a single wavelength of 490 nm.
The values for mean+/− SD of data from triplicate wells are calculated. Some parameters for cellular responses can be calculated: GI=growth inhibition, TGI=total growth inhibition (cytostatic effect) and LC=cell killing (cytotoxic effect).

[15] = tested on: H-MEC-1; assay: Inhibition of cells growth by colorimetric assay (SRB), H-MEC-1; type: cell-based; conditions: H-MEC-1, 48 hours exposure, SRB
Summary of the method: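 For 48 hours, cells seeded at 5×10^3 per well were kept in contact with samples spanning 10 to 10^−8 μg/ml after an 18-hour attachment period. Viable biomass was then estimated colorimetrically with sulphorhodamine B at 490 nm.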

[16] = tested on: K562; assay: cells; type: cell-based; conditions: K562, 48 hours exposure, SRB
Summary of the method: as §1

[17] = tested on: LOVO-DOX; assay: cells; type: cell-based; conditions: LOVO-DOX, 48 hours exposure, SRB
Summary of the method: as §1

[18] = tested on: IGROV; assay: cells; type: cell-based
Summary of the method: as §1

[19] = tested on: PANC-1; assay: cells; type: cell-based; conditions: PANC-1, 48 hours exposure, SRB
Summary of the method: as §1

[20] = tested on: IGROV-ET; assay: cells; type: cell-based; conditions: IGROV-ET, 48 hours exposure, SRB
Summary of the method: as §1

[21] = tested on: SK-BR3; assay: cells; type: cell-based; conditions: SK-BR3, 48 hours exposure, SRB
Summary of the method: as §1

[22] = tested on: LOVO; assay: cells; type: cell-based; conditions: LOVO, 48 hours exposure, SRB
Summary of the method: as §1

[23] = tested on: LNCAP; assay: cells; type: cell-based; conditions: LNCAP, 48 hours exposure, SRB
Summary of the method: as §1

[24] = Homo sapiens, SK-MEL-28, 48 h, MEL-28, 48 hours exposure, SRB
[25] = Homo sapiens, DU-145, 48 h, DU145, 48 hours exposure, SRB
[26] = Homo sapiens, HT-29, 48 h, HT29, 48 hours exposure, SRB

Compound COc1c(C)cc2c(c1O)[C@@H]1C3[C@@H]4SC[C@]5(NCCc6c5[nH]c5ccccc65)C(=O)COC[C@@H](c5c6c(c(C)c(OC(C)=O)c54)OCO6)N3[C@@H](O)[C@H](C2)N1C (stereo partly shown) [Compound 26] has a Kidney [1] of 4.60E−08, a Heart [2] of 6.43E−07 and a Skeletal [3] of 3.71E−08. For the same compound, the CC50 ([4]; 48 h, read-out: LC50) was 11.9 nM, the GI50 ([4]; MCF, 48 hours exposure, SRB) was 2.65 nM and the IC (TGI) ([4]; MCF, 48 hours exposure, SRB, read-out: TGI) was 5.3 nM. The GI50 [5, 24] was 2.65 nM, the IC (TGI) [5, 24] was 5.3 nM and the CC50 ([5]; Homo sapiens, SK-MEL-28, 48 h, read-out: LC50, MEL-28, 48 hours exposure, SRB) was 10.6 nM. For the same compound, the GI50 ([6]; Homo sapiens, A549, 48 h, A549, 48 hours exposure, SRB) was 2.65 nM, the IC (TGI) ([6]; Homo sapiens, A549, 48 h, A549, 48 hours exposure, SRB, read-out: TGI) was 3.97 nM and the CC50 ([6]; Homo sapiens, A549, 48 h, read-out: LC50, A549, 48 hours exposure, SRB) was 13.2 nM. The GI50 [7, 25] was 2.65 nM, the IC (TGI) [7, 25] was 3.97 nM and the CC50 ([7]; Homo sapiens, DU-145, 48 h, read-out: LC50, DU145, 48 hours exposure, SRB) was 10.6 nM. The CC50 ([8]; SW-620, 48 h, read-out: LC50) was 79.5 nM, the IC (TGI) ([8]; SW-620, 48 hours exposure, SRB) was 7.95 nM and the GI50 ([8]; SW-620, 48 hours exposure, SRB, read-out: GI50) was 2.65 nM. The GI50 [9, 26] was 3.97 nM, the IC (TGI) [9, 26] was 7.95 nM and the CC50 ([9]; Homo sapiens, HT-29, 48 h, read-out: LC50, HT29, 48 hours exposure, SRB) was 13.2 nM. It also gave a CC50 ([10]; A498, 48 h, read-out: LC50) of 26.5 nM, a GI50 ([10]; A498, 48 hours exposure, SRB) of 2.65 nM and an IC (TGI) ([10]; A498, 48 hours exposure, SRB) of 6.62 nM. For the same compound, the CC50 ([11]; 48 h, read-out: LC50) was 13.2 nM, the GI50 ([11]; MB231, 48 hours exposure, SRB) was 2.65 nM and the IC (TGI) ([11]; MB231, 48 hours exposure, SRB, read-out: TGI) was 5.3 nM. The Myelo [12] was 1.03E−07 and the Liver [13] was 1.06E−06.
In the case of COc1c(C)cc2c(c1O)[C@@H]1C3[C@@H]4SC[C@]5(NC(C)Cc6c5[nH]c5ccc(O)cc65)C(=O)COC[C@@H](c5c6c(c(C)c(OC(C)=O)c54)OCO6)N3[C@@H](O)[C@H](C2)N1C (stereo partly shown) [Compound 38], the Kidney [1] is reported as 9.85E−08, the GI50 [14] is reported as 2.55 nM and the TGI [14] is reported as 7.13E−09 Molar. For the same compound, the CC50 ([14]; read-out: LC50) was 12700 nM, the Heart [2] was 2.96E−09 and the GI50 [15] was 3.06 nM. It also gave a TGI [15] of 8.93E−09 Molar, a CC50 ([15]; read-out: LC50) of 12700 nM and a Skeletal [3] of 1.29E−08. The GI50 ([5]; MEL-28, 48 hours exposure, SRB) was 2.73 nM, the TGI ([5]; MEL-28, 48 hours exposure, SRB) was 5.33E−09 Molar and the CC50 ([5]; read-out: LC50, MEL-28, 48 hours exposure, SRB) was 10.4 nM. It also gave a GI50 [16] of 0.422 nM, a TGI [16] of 8.18E−10 Molar and a CC50 ([16]; read-out: LC50) of 3.15 nM. It also gave a TGI ([6]; A549, 48 hours exposure, SRB) of 5.24E−09 Molar, a GI50 ([6]; A549, 48 hours exposure, SRB) of 2.38 nM and a CC50 ([6]; read-out: LC50, A549, 48 hours exposure, SRB) of 11.5 nM. It also gave a GI50 [17] of 55.3 nM, a TGI [17] of 8.42E−07 Molar and a CC50 ([17]; read-out: LC50) of 12700 nM. It also gave a GI50 ([18]; 48 hours exposure, SRB) of 0.757 nM, a TGI ([18]; 48 hours exposure, SRB) of 2.89E−09 Molar and a CC50 ([18]; read-out: LC50, 48 hours exposure, SRB) of 8.4 nM. It also gave a GI50 ([7]; DU145, 48 hours exposure, SRB) of 2.04 nM, a TGI ([7]; DU145, 48 hours exposure, SRB) of 6.80E−09 Molar and a CC50 ([7]; read-out: LC50, DU145, 48 hours exposure, SRB) of 12700 nM. The GI50 [19] was 3.22 nM, the TGI [19] was 8.37E−09 Molar and the CC50 ([19]; read-out: LC50) was 428 nM. It also gave a GI50 [20] of 15.7 nM, a TGI [20] of 6.59E−08 Molar and a CC50 ([20]; read-out: LC50) of 6510 nM. For the same compound, the GI50 ([9]; HT29, 48 hours exposure, SRB) was 4.2 nM, the TGI ([9]; HT29, 48 hours exposure, SRB) was 1.69E−08 Molar and the CC50 ([9]; read-out: LC50, HT29, 48 hours exposure, SRB) was 12700 nM. The GI50 [21] was 1.07 nM, the TGI [21] was 3.38E−09 Molar and the CC50 ([21]; read-out: LC50) was 9.54 nM. For the same compound, the GI50 [22] was 3.55 nM, the TGI [22] was 1.03E−08 Molar and the CC50 ([22]; read-out: LC50) was 12700 nM. For the same compound, the GI50 [23] was 0.2 nM, the TGI [23] was 7.21E−10 Molar and the CC50 ([23]; read-out: LC50) was 3.07 nM. For the same compound, the Myelo [12] was 9.66E−11 and the Liver [13] was 1.39E−10.
